These are literature values, as cited in US9782432B2, “Polymers and methods thereof for wound healing” (RUTGERS, THE STATE UNIVERSITY OF NEW JERSEY, priority 2012, dated 2017).

Read-outs that look alike come from different tables or passages of the source.

Data set [1] concerns adhesions. The conditions noted are these: 5 mg/kg/day intramuscularly, 7 days.
Data set [2] relates to adhesions.
Data set [3] concerns adhesions. The conditions noted are these: 0.35, 0.7 or 1.4 mg every 6 hours for 48 or 96 hours.
Data set [4] has as its system adhesion formation. The conditions noted are these: rats with intact pineal glands, injections of melatonin.
The test system of data set [5] is adhesion formation. The settings on record: rats, IP injection.
The test system of data set [6] is adhesion formation. The settings on record: dog, IP injection.
Data set [7] deals with adhesion formation.
Data set [8] has as its system adhesions. The conditions noted are these: IP injections, rat model.

`O=C(O)COC(=O)Cc1ccccc1Nc1c(Cl)cccc1Cl` [aceclofenac]: in the data set with adhesions [1], the “decrease in fibroblasts at the injury site” value is recorded as 8% and the “fibrous area, treatment vs control group” value was “significant difference”.

As for `CC(=O)Oc1ccccc1C(=O)O` [aspirin, acetylsalicylic acid], the adhesion rate in the data set on adhesions [2] (1.7 mg/kg/day for 5 days after surgery) is on record as 44%; with adhesions [2] (28.0 mg/kg/day for 5 days after surgery) it was 77%. Further, the “adhesions vs untreated control” value in the data set with adhesions [3] was “no group was significantly different from the untreated control”.

With `COc1ccc2[nH]cc(CCNC(C)=O)c2c1` [melatonin], in the data set on adhesion formation [4], the adhesions vs control entry is recorded as “significantly less adhesions than the control”. Moreover, the adhesion formation result in the data set on adhesion formation [5] is reported as “significantly reduce abdominal adhesion formation”; with adhesion formation [6] it was “significantly reduce adhesion formation”.

As to vitamin E, the “reduction of adhesion formation” value in the data set with adhesion formation [7] (IP injection) was 80%; in the data set with adhesion formation [7] (oral or intramuscular administration), “not when administered orally or intramuscularly”. The abdominal adhesion formation result with adhesion formation [7] (rats, injected intraperitoneally) was “significantly reduce abdominal adhesion formation”. For the same compound, in the data set with adhesions [8], the “efficacy compared with Seprafilm” value is listed as “as effective as Seprafilm”.
